Measured values from publication PMC7561186, “Rational design of balanced dual-targeting antibiotics with limited resistance” (PLoS Biology, 2020).
Several values for one entry are separate records, joined by “and”; a condition that tells them apart may be missing. Equal values may be shown once. Read-outs that look alike come from different tables or passages of the source.

Key:
Acinetobacter baumannii = test: MIC, broth microdilution (CLSI); assay type: cell-based
Method: (§1) MICs were determined using a standard serial broth microdilution technique according to the CLSI guidelines. Briefly, bacterial strains were inoculated onto MHBII agar plates and were grown overnight at 37 °C. Next, 3 individual colonies from each strain were inoculated into 1 mL MHBII medium and propagated at 37 °C, 250 rpm overnight. In the cases of Enterococcus and Streptococcus sp., cells were plated to BHI agar plates, and BHI broth was used to determine MICs. […] Following dilutions, each well was seeded with 5×10^4 bacterial cells. All measurements were performed in 3 parallel replicates and to avoid possible edge effects in microwell plates, side rows (A and H) were filled with sterile medium. Following inoculations, plates were covered with lids and wrapped in polyethylene plastic bags to minimize evaporation but allow for O2 transfer. Plates were incubated at 37 °C under continuous shaking at 150 rpm for 18 hours. After incubation, OD600 of each well was measured using a BioTek Synergy 2 microplate reader.

Clostridium difficile = test: MIC, broth microdilution (CLSI); assay type: cell-based
Method: as §1

Enterococcus faecalis = test: MIC, broth microdilution (CLSI); assay type: cell-based; conditions: Enterococcus faecalis ATCC 29212
Method: as §1

Enterococcus faecium = test: MIC, broth microdilution (CLSI); assay type: cell-based
Method: as §1

Escherichia coli = test: MIC, broth microdilution (CLSI); assay type: cell-based; conditions: Escherichia coli ATCC 25922
Method: as §1

Haemophilus influenzae = test: MIC, broth microdilution (CLSI); assay type: cell-based
Method: as §1

Helicobacter pylori = test: MIC, broth microdilution (CLSI); assay type: cell-based; conditions: Helicobacter pylori ATCC 43504
Method: as §1

Klebsiella pneumoniae = test: MIC, broth microdilution (CLSI); assay type: cell-based; conditions: Klebsiella pneumoniae ATCC 10031
Method: as §1

Listeria monocytogenes = test: MIC, broth microdilution (CLSI); assay type: cell-based; conditions: Listeria monocytogenes ATCC 19111
Method: as §1

Neisseria gonorrhoeae = test: MIC, broth microdilution (CLSI); assay type: cell-based
Method: as §1

Pseudomonas aeruginosa = test: MIC, broth microdilution (CLSI); assay type: cell-based
Method: as §1

Shigella flexneri = test: MIC, broth microdilution (CLSI); assay type: cell-based
Method: as §1

Staphylococcus aureus = test: MIC, broth microdilution (CLSI); assay type: cell-based
Method: as §1

Streptococcus pneumoniae = test: MIC, broth microdilution (CLSI); assay type: cell-based
Method: as §1

Streptococcus pyogenes = test: MIC, broth microdilution (CLSI); assay type: cell-based
Method: as §1

[1] = test system: multidrug-resistant Staphylococcus, Enterococcus, and Streptococcus isolates; test: MIC against multidrug-resistant gram-positive isolates (summary); assay type: cell-based; conditions: read-out: MIC values against all studied multidrug-resistant Staphylococcus, Enterococcus, and Streptococcus isolates
Method: as §1

[2] = test system: S. aureus ATCC 700699 and S. aureus ATCC 43300; test: Spontaneous frequency-of-resistance assay; assay type: cell-based
Method: Prior to plating, bacteria were grown overnight in MHBII medium at 37 °C, 250 rpm, collected by centrifugation, and washed once in equal volumes of MHBII broth. From this concentrated cell suspension (250 μL), approximately 10^10 cells were then plated to each MHBII agarose plates. […] All experiments were performed in at least 3 replicates. Plates were grown at 37 °C for 72 hours. Total CFUs were determined simultaneously in each experiment by plating appropriate dilutions to antibiotic-free MHBII agar plates. Finally, resistance frequencies for each strain were calculated by dividing the number of colonies formed after a 72-hour incubation at 37 °C by the initial viable cell count.

[3] = test system: novobiocin-resistant S. aureus VISA ATCC 700699 mutants; test: MIC against novobiocin-resistant (novobiocin-adapted) strains; assay type: cell-based; conditions: for MIC: Staphylococcus aureus
Method: as §1

MCF-7 cells = conditions: LDH assay
Method: (§2) Cytotoxicity of compounds on HepG2 and MCF-7 mammalian cell lines was determined by using a standard LDH assay. Briefly, HepG2 and MCF-7 cells were cultured in Eagle’s MEM medium (from Gibco) supplemented with 2 mM L-glutamine (Sigma), 100 U/mL penicillin (Sigma), and 100 μg/mL streptomycin (Sigma), and 10% FBS (Gibco) at 37 °C and under 5% CO2. Next, LDH assays were performed according to manufacturer instructions (Thermo Fisher Scientific, Massachusetts, USA). By using a CyQUANT LDH Cytotoxicity Assay Kit. Firstly, the cells were seeded in 96-well microtiter plates at 10^5 cells/mL (100 μL/well) and allowed to attach overnight. […] Lysis buffer (10 μL, Thermo Fisher Scientific) was then added to the maximal LDH activity control wells and incubated additional 45 minutes. The cell culture supernatant (50 μL) was then transferred to a new 96-well plate and mixed with 50 μL of the reaction mixture. After 30 minutes on room temperature, reactions were stopped with 50 μL of the Stop solution. Absorbance (490 nm and 680 nm) was measured with the automatic microplate reader Synergy 4 Hybrid Microplate Reader (BioTek, VT, USA). All experiments were performed in triplicates and repeated 3 times. Statistical significance (P < 0.05) was calculated with 2-tailed Welch’s t-test between treated groups and DMSO. The percentage of cytotoxicity was determined according to the following equation: %Cytotoxicity=(CompoundtreatedLDHactivity-SpontaneousLDHactivity/MaximumLDHactivity-SpontaneousLDHactivity)*100

in vitro = conditions: human
Method: as §2

human red blood cells = test: Haemolysis analysis
Method: Next, 600 μl of this EDTA-treated blood was washed in TBS buffer (10 mM TRIS, 150 mM NaCl [pH 7.2]) and centrifuged at 1,500 g for 1 minute until the supernatant became colorless. The aliquot of the final pellet (200 μL) was diluted to 5 mL with TBS buffer. […] Next, 100 μL of red blood cell suspension was pipetted into sterile Eppendorf tubes together with 100 μL of 2-fold serial dilution of the compounds (final concentration ranged between 100 μg/mL–0.1 μg/mL in a final volume of 200 μL). The plate was incubated for one hour at 37 °C followed by centrifugation at 1,500 g for 1 minute to sediment all red blood cells. Next, all supernatants were subjected to LDH and Haemolysis-Icterus-Lipaemia (HIL) index determination on a Roche Modular P800 analyzer according to the manufacturer’s instructions. After completion of this step the rest of the supernatants were transferred to sterile 96-well plates for the measurement of their optical density at 560-nm wavelength (in a Multiskan FC microplate reader, Thermo Scientific). Melittin (Bachem) at a concentration of 50 μg/mL, and TBS and 10% DMSO/TBS were served as positive (100% hemolysis) and negative (no hemolysis) controls, respectively.

Cc1[nH]c(C(=O)Nc2nc3c(OCc4ccccc4)cc(C(=O)O)cc3s2)c(Cl)c1Cl [ULD2]
MIC (Acinetobacter baumannii; ATCC19606, Acinetobacter baumannii ATCC 19606): 0.5 µg/mL | MIC (Acinetobacter baumannii; Acinetobacter baumannii ATCC 17978): 2 µg/mL | MIC (Acinetobacter baumannii; Acinetobacter baumannii ATCC 19606): 0.5 µg/mL | MIC (Clostridium difficile; Clostridioides difficile, BAA1875): ≤ 0.0312 µg/mL | MIC (Clostridium difficile; Clostridium difficile BAA-1875): < 0.0312 µg/mL | MIC (Enterococcus faecalis): < 0.0312 µg/mL | MIC (Enterococcus faecium; Enterococcus faecium ATCC 19434): 0.5 µg/mL | MIC (Enterococcus faecium; Enterococcus faecium ATCC 700221, VRE (VanA+)): 0.0625 µg/mL | MIC (Enterococcus faecium; Enterococcus faecium CCUG 56858, VRE (VanB+)): 0.25 µg/mL | MIC (Escherichia coli): 16 µg/mL | MIC (Haemophilus influenzae; ATCC49247, Haemophilus influenzae ATCC 49247): 0.125 µg/mL | MIC (Haemophilus influenzae; Haemophilus influenzae ATCC 35056): 1 µg/mL | MIC (Haemophilus influenzae; Haemophilus influenzae ATCC 49247): 0.125 µg/mL | MIC (Helicobacter pylori): 4 µg/mL | MIC (Klebsiella pneumoniae; ATCC10031): 4 µg/mL | MIC (Klebsiella pneumoniae): 4 µg/mL | MIC (Listeria monocytogenes; ATCC19111): 0.125 µg/mL | MIC (Listeria monocytogenes): 0.125 µg/mL | MIC (Neisseria gonorrhoeae; CCUG57598, Neisseria gonorrhoeae CCUG 57598): ≤ 0.0312 µg/mL | MIC (Neisseria gonorrhoeae; Neisseria gonorrhoeae ATCC 700825): < 0.0312 µg/mL | MIC (Neisseria gonorrhoeae; Neisseria gonorrhoeae CCUG 57598): < 0.0312 µg/mL | MIC (Pseudomonas aeruginosa; ATCC27853, Pseudomonas aeruginosa ATCC 27853): 2 µg/mL | MIC (Pseudomonas aeruginosa; Pseudomonas aeruginosa ATCC 27853): 2 µg/mL | MIC (Pseudomonas aeruginosa; Pseudomonas aeruginosa B3-1811, Ciprofloxacin-R, Cephalosporin-R): 16 µg/mL | MIC (Shigella flexneri; Shigella flexneri 668): 16 µg/mL | MIC (Shigella flexneri; Shigella flexneri HNCMB 20018): 8 µg/mL | MIC (Staphylococcus aureus; Staphylococcus aureus (strain not given), MRSA (SCCmec type IV), Oxacillin-R, VSSA, Cephalosporin-R, Erythromycin-R): 0.063 µg/mL | MIC (Staphylococcus aureus; Staphylococcus aureus ATCC 29213): 0.5 µg/mL | MIC (Staphylococcus aureus; Staphylococcus aureus ATCC 33594, MSSA, VSSA): 0.125 µg/mL | MIC (Staphylococcus aureus; Staphylococcus aureus ATCC 43300, MRSA): 0.0625 µg/mL | MIC (Staphylococcus aureus; Staphylococcus aureus ATCC 700699 (Mu50, NRS1), MRSA, VISA): < 0.0312 µg/mL | MIC (Staphylococcus aureus; Staphylococcus aureus CDC AR-BANK 0218, MRSA, VISA): 0.125 µg/mL | MIC (Staphylococcus aureus; Staphylococcus aureus ECL 2963646, MRSA, VRSA): < 0.0312 µg/mL | MIC (Staphylococcus aureus; Staphylococcus aureus NRS271, MRSA, Linezolid-R): 0.25 µg/mL | MIC (Staphylococcus aureus; Staphylococcus aureus USA300, ATCC BAA-1717, MRSA): 0.063 µg/mL | MIC (Staphylococcus aureus; Staphylococcus aureus USA400, BAA-1707, NRS123, MRSA): 0.125 µg/mL | MIC (Staphylococcus aureus; Staphylococcus aureus, ATCC 700699 / MRSA / NRS 1 / VISA, S. aureus ATCC 700699 (Mu50, NRS1), MRSA, VISA): ≤ 0.0312 µg/mL | MIC (Staphylococcus aureus; Staphylococcus aureus, S. aureus ECL 2963646, MRSA, VRSA): ≤ 0.0312 µg/mL | MIC (Streptococcus pneumoniae; Streptococcus pneumoniae ATCC 49619): 0.25 µg/mL | MIC (Streptococcus pneumoniae; Streptococcus pneumoniae ATCC 51916): 0.25 µg/mL | MIC (Streptococcus pneumoniae; Streptococcus pneumoniae ATCC 700673): 0.25 µg/mL | MIC (Streptococcus pyogenes; Streptococcus pyogenes ATCC 14289): 0.25 µg/mL | MIC (Streptococcus pyogenes; Streptococcus pyogenes ATCC 19615): 0.125 µg/mL | MIC [1]: < 2 µg/mL | resistant mutants emerged ([2]; 4×10^12 S. aureus ATCC 700699 (VISA) cells, 4 times the wild-type MIC, in words): no ULD2 resistant mutants have emerged | mutant prevention concentration (MPC) ([2]; S. aureus ATCC 700699 (VISA), estimate): 0.08 µg/mL | Spontaneous frequency-of-resistance (replicates) ([2]; Staphylococcus aureus (MRSA) ATCC 43300, 2xMIC): 1.00E-12 and 1.529e-10 and 1.99e-10 and 7.692e-11 and 9.00E-10 and 1.80E-09 and 1.43E-10 | Spontaneous frequency-of-resistance (replicates) ([2]; Staphylococcus aureus (MRSA) ATCC 43300, 4xMIC): 5.00E-11 and 1.67E-10 and 7.14E-11 and 1.00E-12 | Spontaneous frequency-of-resistance (replicates) ([2]; Staphylococcus aureus (MRSA) ATCC 43300, 8xMIC): 1.00E-12 | Spontaneous frequency-of-resistance (replicates) ([2]; Staphylococcus aureus (VISA) ATCC 700699, 2xMIC): 1.00E-12 and 8.77E-11 | Spontaneous frequency-of-resistance (replicates) ([2]; Staphylococcus aureus (VISA) ATCC 700699, 4xMIC): 1.00E-12 | Spontaneous frequency-of-resistance (replicates) ([2]; Staphylococcus aureus (VISA) ATCC 700699, 8xMIC): 1.00E-12 | cross-resistance of novobiocin-resistant isolates ([3]; 9 independently evolved novobiocin-resistant isolates, in words): no cross-resistance | MIC ([3]; WT S. aureus VISA ATCC 700699, read-out: MIC): 0.02 µg/mL | MIC ([3]; novobiocin-adapted Evolved 1): 0.016 µg/mL | MIC ([3]; novobiocin-adapted Evolved 2): 0.016 µg/mL | MIC ([3]; novobiocin-adapted Evolved 3): 0.016 µg/mL | MIC ([3]; novobiocin-adapted Evolved 4): 0.063 µg/mL | MIC ([3]; novobiocin-adapted Evolved 5): 0.031 µg/mL | MIC ([3]; novobiocin-adapted Evolved 6): 0.016 µg/mL | MIC ([3]; novobiocin-adapted Evolved 7): 0.016 µg/mL | MIC ([3]; novobiocin-adapted Evolved 8): 0.016 µg/mL | MIC ([3]; novobiocin-adapted Evolved 9): 0.016 µg/mL | Max. % inhibition at 100 µM (MCF-7 cells): Max. % inhibition at 100 µM: 8.43% | IC50 (in vitro): > 100 µM | LDH activity (human red blood cells; human red blood cells, 100 µg/mL): 10 Unit/mL | hemolytic activity on human red blood cells (human red blood cells; in words): no biocompatibility concerns
